{"source": "patent US20240335539A1", "about": "“MODULATION OF BCL-2 TO ENHANCE CHIMERIC ANTIGEN RECEPTOR CANCER IMMUNOTHERAPY EFFICACY” (The Trustees of the University of Pennsylvania, priority 2021, published 2024)", "system": "mantle cell lymphoma (MCL)", "assay": "Clinical outcomes of MCL patients after brexucabtagene autoleucel by venetoclax bridging therapy", "type": "in vivo, human", "procedure": "FIGS. 13A-13H illustrate the finding that chromosomal alterations of BCL-2 in lymphoma patients associate with poor prognosis of CART therapy. FIG. 13A is a schematic of the strategy used herein to investigate whether genetic alteration of BCL-2 affects CART's anti-tumor clinical response. Pre-CART biopsies from patients with LCL were analyzed by fluorescence in situ hybridization (FISH) to search for BCL-2 chromosomal aberration. […] FIG. 13F is a schematic of the strategy used herein to investigate the impact of venetoclax bridging therapy on CART19's clinical response in MCL patients. […]\nFor the large B cell lymphoma cohort, clinical data were collected from patients diagnosed with DLBCL not otherwise specified (NOS), high-grade B cell lymphoma (HGBCL) NOS, HGBCL with MYC and BCL-2 and/or BCL-6 rearrangements, and transformed follicular lymphoma treated at the University of Pennsylvania using two commercial CART19 products (tisagenlecleucel or axicabtagene ciloleucel, UPCC44420) or enrolled in the CTL019 clinical trial NCT02030834. Only patients evaluated for chromosomal alterations involving the BCL-2 locus by interim FISH analysis were included in the current study. […] Disease response was determined according to Lugano classification. […]"}
{"compound": "CC1(C)CCC(CN2CCN(c3ccc(C(=O)NS(=O)(=O)c4ccc(NCC5CCOCC5)c([N+](=O)[O-])c4)c(Oc4cnc5[nH]ccc5c4)c3)CC2)=C(c2ccc(Cl)cc2)C1", "note": "[venetoclax]", "values": [{"measurement": "complete response rate after brex-cel", "setting": "bridging therapy including venetoclax (7/8)", "value": 87.5, "unit": "%"}, {"measurement": "patients in complete response at one year", "setting": "venetoclax bridging therapy before brex-cel", "value": 100, "unit": "%"}]}
